In US20130345182A1, “STABLE COMPOSITION COMPRISING CHOLESTEROL-LOWERING AGENTS, […] AGENTS AND […] AGENTS” (Silanes Laboratories, priority 2010, published 2013):

Experiments:
[1] = Dissolution profile of tablets; assay type: physicochemical
From the text: Assessment of the composition of the present invention formulated into tablets was made, as described in Example 1 to determine their dissolution profiles, according to methods widely known in the industry, in order to evaluate the release of drugs.

[2] = Determination of drugs content stability under extreme storage conditions; assay type: physicochemical
Method: The compositions from Example 1 were subjected to extreme storage conditions.
These conditions were maintained for a month, as follows: temperature 40° C. and 75% relative humidity (RH) and at temperature of 60° C. and 85% RH.
Then, the determination of the contents of each of the drugs was performed.

Long-term stability test = assay type: physicochemical
Method: The compositions of the present invention can be formulated into tablets which are packed in Aluminum-Aluminum blisters and subjected to stability studies according to ICH international guidelines (International Conference of Harmonization, Guideline for Industry, Stability Testing of New Drug Substances and Products. ICH Q1A (R2) February 2003).
Long-term stability studies were conducted on a batch from the composition of the present invention manufactured in accordance with that described in Example 1 but with the addition of coloring agent; these studies were conducted in selected conditions of temperature and humidity, which were 30° C. and 75% RH, and a temperature of 25° C. and 60% RH, showing that the pharmaceutical composition is stable according to the results exemplified in Table 3 up to 9 months, although the study was conducted under the regulatory guidelines for a longer period.

clinical = settings: human
[3] = patients with type 2 diabetes mellitus and proteinuria; cited from earlier work
[4] = cited from earlier work
[5] = 0 months, 30° C./75% RH or 25° C./60% RH (not said which)

Row | SMILES | Average of % dissolved ([1]; 10 minutes) [%] | Average of % dissolved ([1]; 20 minutes) [%] | Average of % dissolved ([1]; 30 minutes) [%] | Average of % dissolved ([1]; 40 minutes) [%] | Average of % dissolved ([1]; 50 minutes) [%] | Average of % dissolved ([1]; 60 minutes) [%] | Drug content ([2]; 1 Month 40° C./75% RH) [%] | Drug content ([2]; 1 Month 60° C./85% RH) [%] | Drug content ([2]; Initial) [%] | Dissolution (Long-term stability test; 0 months) [%] | Content (Long-term stability test; [5]) [%] | Content (Long-term stability test; 1 month) [%] | Dissolution (Long-term stability test; 1 month) [%] | Content (Long-term stability test; 3 months) [%] | Dissolution (Long-term stability test; 3 months) [%] | Content (Long-term stability test; 6 months) [%] | Dissolution (Long-term stability test; 6 months) [%] | Content (Long-term stability test; 9 months) [%] | Dissolution (Long-term stability test; 9 months) [%] | concentration at 0 h (clinical; in vivo) [ng/mL] | other results
1 | CC(=O)Oc1ccccc1C(=O)O [Acetylsalicylic acid, acetylsalicylic acid] | 12 | 34 | 56 | 73 | 84 | 88 | 96.45 | 96.05 | 94.63 | 88.75 | 98.70 | 101.00 | 78.38 | 98.54 | 83.57 | 98.67 | 87.60 | 95.14 | 81.66 | – | –
2 | CCCCc1nc(Cl)c(CO)n1Cc1ccc(-c2ccccc2-c2nn[nH]n2)cc1 [Losartan potassium, losartan potassium] | 60 | 100 | 102 | 102 | 103 | 104 | 96.31 | 96.64 | 95.88 | 103.01 | 100.32 | 99.24 | 95.28 | 98.50 | 96.38 | 99.85 | 92.77 | 95.33 | 91.66 | 0 | concentration at 0.17 h (clinical; in vivo): 39.7 ng/mL; concentration at 0.33 h (clinical; in vivo): 137 ng/mL; concentration at 0.5 h (clinical; in vivo): 191 ng/mL; concentration at 0.75 h (clinical; in vivo): 176 ng/mL; concentration at 1 h (clinical; in vivo): 140 ng/mL; concentration at 2 h (clinical; in vivo): 113 ng/mL; concentration at 2.5 h (clinical; in vivo): 96.3 ng/mL; concentration at 3 h (clinical; in vivo): 81.5 ng/mL; concentration at 4 h (clinical; in vivo): 57.5 ng/mL; concentration at 6 h (clinical; in vivo): 38.7 ng/mL; concentration at 7 h (clinical; in vivo): 21.8 ng/mL; concentration at 8 h (clinical; in vivo): 12.4 ng/mL; concentration at 10 h (clinical; in vivo): 6.01 ng/mL; concentration at 12 h (clinical; in vivo): 3.06 ng/mL; Progression of renal disease [3]: delays the progression of renal disease
3 | CC[C@H](C)C(=O)O[C@H]1C[C@H](O)C=C2C=C[C@H](C)[C@H](CC[C@@H](O)C[C@@H](O)CC(=O)O)[C@H]21 [Pravastatin sodium, pravastatin sodium] | 61 | 104 | 105 | 106 | 107 | 108 | 98.72 | 98.23 | 99.76 | 99.79 | 98.89 | 98.04 | 94.77 | 95.83 | 98.09 | 98.77 | 95.97 | 99.97 | 93.37 | 0 | concentration at 0.17 h (clinical; in vivo): 2.8 ng/mL; concentration at 0.33 h (clinical; in vivo): 24.9 ng/mL; concentration at 0.5 h (clinical; in vivo): 72.6 ng/mL; concentration at 0.75 h (clinical; in vivo): 113 ng/mL; concentration at 1 h (clinical; in vivo): 110 ng/mL; concentration at 2 h (clinical; in vivo): 77 ng/mL; concentration at 2.5 h (clinical; in vivo): 58 ng/mL; concentration at 3 h (clinical; in vivo): 42.5 ng/mL; concentration at 4 h (clinical; in vivo): 25.8 ng/mL; concentration at 6 h (clinical; in vivo): 16.2 ng/mL; concentration at 7 h (clinical; in vivo): 9.73 ng/mL; concentration at 8 h (clinical; in vivo): 13.3 ng/mL; concentration at 10 h (clinical; in vivo): 6.53 ng/mL; concentration at 12 h (clinical; in vivo): 1.71 ng/mL; concentration at 24 h (clinical; in vivo): 1.27 ng/mL; Incidence of type 2 diabetes mellitus, lower than in placebo group ([4]; patients administered pravastatin vs placebo): 30%; Reduction of incidence of cerebral thrombosis ([4]; patients): ≤ 20%
4 | O=C(O)c1ccccc1O [Salicylic acid] | – | – | – | – | – | – | – | – | – | – | – | – | – | – | – | – | – | – | – | – | concentration at 0 h (clinical; plasma, oral): 0 ng/mL; concentration at 0.17 h (clinical; plasma, oral): 1.09 ng/mL; concentration at 0.33 h (clinical; plasma, oral): 3.97 ng/mL; concentration at 0.5 h (clinical; plasma, oral): 8.78 ng/mL; concentration at 0.75 h (clinical; plasma, oral): 14.8 ng/mL; concentration at 1 h (clinical; plasma, oral): 21.1 ng/mL; concentration at 2 h (clinical; plasma, oral): 28.8 ng/mL; concentration at 2.5 h (clinical; plasma, oral): 36.5 ng/mL; concentration at 3 h (clinical; plasma, oral): 43.3 ng/mL; concentration at 4 h (clinical; plasma, oral): 49.2 ng/mL; concentration at 6 h (clinical; plasma, oral): 50.2 ng/mL; concentration at 7 h (clinical; plasma, oral): 45.4 ng/mL; concentration at 8 h (clinical; plasma, oral): 25.1 ng/mL; concentration at 10 h (clinical; plasma, oral): 12.5 ng/mL; concentration at 12 h (clinical; plasma, oral): 4.21 ng/mL; concentration at 24 h (clinical; plasma, oral): 1.16 ng/mL
